{"source": "patent US20250339432A1", "about": "“QUINAZOLINONE COMPOUND AS BRAF INHIBITOR FOR THE TREATMENT OF ADVANCED SOLID CANCER OR METASTASES” (Hoffmann-La Roche Inc., priority 2022, published 2025)", "key": {"[1]": {"assay": "Food Cohort: food effect on PK (high-fat meal vs fasted)", "type": "in vivo, human", "conditions": "fed cohort vs fasted, preliminary PK data, FIG. 3", "text": "Part 1—Food Cohort: The food effect (FE) on the PK of Compound Ia will be evaluated in Part 1a (Compound Ia monotherapy) or in Part 1b (Compound Ia in combination with cobimetinib) at the MTD and/or RP2D, or at dose levels close to the RP2D and/or MTD of Compound Ia with or without cobimetinib. For exploring the effect of food intake, participants will receive Compound Ia after a high-fat meal (Group 1) or following a 10-hour fast (Group 2) using a parallel design. For this pilot FE evaluation, a minimum of 6 evaluable participants will be enrolled.\nMeals and Dietary Restrictions: Generally, for participants receiving Compound Ia, no dietary restrictions are foreseen. A preliminary assessment of the FE (food effect) on the PK of Compound Ia will be done in Part 1 to inform about potential dietary requirements for the dose expansion (Part 2) in case a FE is observed. For participants receiving cobimetinib, the use of grapefruit juice, a potent CYP3A4 enzyme inhibitor, is prohibited during the study and for 30 days after the last dose of study treatment. For Participants in Food Cohort in the Food Cohort of Part 1, the effect of food on the systemic exposure of Compound Ia will be explored close to the MTD and/or at RP2D or relevant dose levels for a minimum of 6 participants. […] The food intake during the high-fat meal plus calories and fat content will be recorded."}, "[2]": {"assay": "Solubility / biopharmaceutics classification", "type": "physicochemical", "conditions": "for solubility across the physiological pH range: behaves like a weak acid"}, "[3]": {"conditions": "human, in vivo", "excerpt": "Participants in the Pilot PK Cohort were enrolled and treated in a staggered manner (at least 3 days between the first and second participant).\nThe dosing regimen will then change to a twice-daily (BID) or three-times-daily (TID) administration, depending on new emerging PK data.\nThe number of patients with leptomeningeal involvement of their tumours is capped at 33% in each cohort. To avoid exposing participants to undue risk of toxicity, the maximum allowable dose increment recommended by the mCRM EWOC (modified continual reassessment method escalation with overdose control) design will be 100% (i.e., a 2-fold increase). […] The mCRM-EWOC will be adapted to the new dosing regimen.\nSafety assessments will consist of monitoring and recording AEs, including serious AEs (SAEs) and non-SAEs of special interest (NSAESI); measurement of protocol-specified safety laboratory assessments; measurement of protocol-specified vital signs, ECGs; and other protocol-specified tests that are deemed critical to the safety evaluation of the study."}, "[4]": {"conditions": "in vivo", "description": "(§1) In a Pilot PK Cohort prior to the dose-escalation in Part 1a (monotherapy), the PK of Compound Ia was explored after a single, oral dose of 25 mg in 2 participants to address the PK uncertainty.\n(§2) Blood samples to evaluate concentrations of Compound Ia and cobimetinib (and its metabolite[s], if appropriate) will be collected. The date and time of each sample collection will be recorded. Compound Ia and cobimetinib levels will be analyzed by using validated LC-MS/MS assays. […] Dedicated PK samples will be collected for the Pilot PK Cohort and the Food Cohort at pre-defined timepoints.\n(§3) PK parameters for Compound Ia administered alone and in combination with cobimetinib will be derived from the plasma concentrations and will be listed and summarized using descriptive statistics (such as mean, standard deviation, coefficient of variation, median, minimum, and maximum). The PK parameters will include but are not limited to area under the curve (AUC), maximum concentration (Cmax), time of maximum concentration observed (Tmax) and, apparent oral clearance (CL/F), volume of distribution at steady-state (Vss/F), and terminal half-life (t½). Estimation of PK parameters may be performed using standard non-compartmental methods and/or population PK modeling. If data allow, other methods may be used for data analysis, e.g., PK and PD data may be used to develop a population PK/PD model. Individual and mean plasma Compound Ia concentration versus time data will be tabulated and plotted by dose levels. […] The linearity of PK (AUC and Cmax) will be investigated. To assess the FE on the PK of Compound Ia, PK parameters (such as AUC, Cmax, Tmax and t1/2) will be analyzed following oral administration of Compound Ia while either fed (high-fat meal) or fasted for a minimum of 6 participants. Estimation of PK parameters may be performed using standard non-compartmental methods and/or population PK modeling. Furthermore, Compound Ia CSF concentrations (where applicable) might be presented by listings and descriptive summary statistics (such as mean, standard deviation, coefficient of variation, median, minimum, and maximum). If data allow, other methods may be used for data analysis, e.g., PK and PD data may be used to develop a population PK/PD model."}, "[5]": {"assay": "clinical", "conditions": "human, in vivo, po, 25 mg", "description": "as §1, §2, §3"}, "[6]": {"assay": "Non-clinical safety benchmark dose in rats"}}}
{"smiles": "Cn1cnc2ccc(Oc3c(F)ccc(NS(=O)(=O)N4CC[C@@H](F)C4)c3C#N)cc2c1=O", "note": "[Compound Ia, (3R)—N-[2-cyano-4-fluoro-3-(3-methyl-4-oxo-quinazolin-6-yl)oxy-phenyl]-3-fluoro-pyrrolidine-1-sulfonamide]", "values": [{"measurement": "effect of food on AUCINF (AUC0-∞)", "setting": "[1]", "value": "did not significantly alter"}, {"measurement": "effect of food on Cmax", "setting": "[1]", "value": "lower Cmax"}, {"measurement": "biopharmaceutics classification system class", "setting": "[2]", "value": "class 2"}, {"measurement": "solubility", "setting": "[2]", "value": "low and pH dependent solubility"}, {"measurement": "solubility across the physiological pH range", "setting": "[2]", "value": "purely soluble at low pH with increasing solubility at neutral and alkaline pH"}, {"measurement": "solubility across the physiological pH range", "setting": "[2]; listed as compound of formula (I)", "value": "poorly soluble at low pH with increasing solubility at neutral and alkaline pH"}, {"measurement": "drug related Grade 3 adverse events", "setting": "[3]", "value": "less than 25%"}, {"measurement": "safety margin based on unbound AUC0-∞ to the safety benchmark dose of 200 mg/kg/day in rat", "setting": "[4]", "value": 22, "unit": "fold"}, {"measurement": "safety margin based on unbound Cmax to the safety benchmark dose of 200 mg/kg/day in rat", "setting": "[4]", "value": 4, "unit": "fold"}, {"measurement": "safety margin based on preliminary unbound AUC0-∞ to the safety benchmark dose of 200 mg/kg/day in rats", "setting": "[4]; rat", "value": 174, "unit": "fold"}, {"measurement": "safety margin based on preliminary unbound Cmax to the safety benchmark dose of 200 mg/kg/day in rats", "setting": "[4]; rat", "value": 32, "unit": "fold"}, {"measurement": "half-life", "setting": "[5]", "value": "2 to 4", "unit": "h"}, {"measurement": "NOAEL", "setting": "[6]; rat, in vivo", "value": 200, "unit": "mg/kg/day"}, {"measurement": "safety benchmark dose (toxic dose in 10% of animals)", "setting": "[6]; rats", "value": 200, "unit": "mg/kg/day"}]}
